Data published in patent publication US20210236445A1, “BACLOFEN AND ACAMPROSATE BASED THERAPY OF ALZHEIMER'S DISEASE IN PATIENTS HAVING LOST RESPONSIVENESS TO ACETYLCHOLINESTERASE INHIBITOR THERAPY” (priority 2018, published 2021).

Assays:
[1] = system: patient's cognitive function; conditions: cited from earlier work
[2] = system: Aβ25-35-induced spontaneous alternation deficits in mice; assay: Spontaneous alternation performance (Y-maze) in Aβ25-35 ICV-injected mice; format: in vivo, Swiss mice; conditions: for Effect on Aβ25-35-induced cognitive impairment, spontaneous alternation (Y-maze), after longer treatment / Effect on Aβ25-35-induced cognitive impairment, spontaneous alternation (Y-maze): Example A; for Effect on Aβ25-35-induced cognitive impairment, spontaneous alternation (Y-maze), after longer treatment: treatment alone from D20, tested D38 or D40; for Effect on Aβ25-35-induced cognitive impairment, spontaneous alternation (Y-maze): treatment alone per os from D20, eleven days, tested D30, donepezil 1 mg/Kg once a day or acamprosate/baclofen 0.2/3 mg/Kg twice a day
Experimental: (§1) Male Swiss mice were anesthetized 5 minutes with isoflurane 2.5%. At Day 01, animals were injected intracerebroventricularly (ICV) through a 28-gauge stainless-steel needle, 4 mm long. An injection volume of 3 μl was delivered gradually within 30 s and the needle left in place for an additional 30 s before being removed. […] Homogeneous preparation of the Aβ25-35 peptide were performed according to the AMYLGEN's own procedure.
(§2) All animals received a per os gavage using an inox steel cannula (5 mL/Kg). All the treatments were administered under a volume calculated according to the individual body weight of each mouse (5 mL/Kg). Vehicle and donepezil (1 mg/Kg) administration were done once a day, and the mix Acamprosate/baclofen twice a day (0.2 mg/Kg and 3 mg/Kg, respectively).
(§3) In a first set of experiments (FIG. 1A), the treatment, donepezil (1 mg/Kg), was started 19 days (D20) after icy injection for 21 days (D40) (group 3 and 4). At D30 one group of animals treated with donepezil was administered with acamprosate and baclofen (0.2 mg/Kg and 3 mg/Kg, respectively), in addition of donepezil treatment (group 4).
(§4) In a second set of experiments (FIG. 1B). The treatment, donepezil (1 mg/kg) (Group 5) or the combination acamprosate and baclofen (0.2 mg/Kg and 3 mg/Kg, respectively) (group 7), was started 19 days (D20) after icy injection and maintained for 23 days (D42) in two groups of animals. In a third group of animals (group 6), initially treated with donepezil, treatment with donepezil was stopped at D30 and replaced with administration of acamprosate and baclofen (0.2 mg/Kg and 3 mg/Kg, respectively) until D42.
(§5) Mice were tested for spontaneous alternation performance in the Y-maze, an index of spatial working memory. The Y-maze was designed according to Itoh et al.,1993 (57) and Hiramatsu and Inoue, 1999 (58), and is made of grey polyvinylchloride. Each arm is 40 cm long, 13 cm high, 3 cm wide at the bottom, 10 cm wide at the top, and converging at an equal angle. Each mouse was placed at the end of one arm and allowed to move freely through the maze during an 8 min session. The series of arm entries, including possible returns into the same arm, were checked visually by an experimenter blind to treatment. An alternation is defined as entries into all three arms on consecutive occasions. The number of maximum alternations were therefore the total number of arm entries minus two and the percentage of alternation as calculated as (actual alternations / maximum alternations)×100. Calculated parameters consisted in the percentage of alternation (memory index) and the total number of arm entries (exploration index) (52-56).
In the first set of experiments (FIG. 1A), animals were tested after the beginning of the treatment at D30 and D38. In the second set of experiments (FIG. 1B), animals were tested after the beginning of the treatment, at D30 and D40.
(§6) All animals received a per os gavage using an inox steel cannula. Vehicle or Donepezil (1 mg/kg) were administered at D8 until D17; or at D20 until D30 or at D20 to D40 once a day. All the treatments were administered under a volume calculated according to the individual body weight of each mouse (5 mL/Kg).
as §5, with “8min” for “8 min”, “occasions.” for “occasions. The number of maximum alternations were therefore the total number of arm entries minus two and the percentage of alternation as calculated as (actual alternations / maximum alternations)×100. Calculated parameters consisted in the percentage of alternation (memory index) and the total number of arm entries (exploration index) (52-56).”

[3] = system: Aβ25-35-induced step-through passive avoidance deficits in mice; assay: Step-through passive avoidance test (STPA) in Aβ25-35 ICV-injected mice; format: in vivo, Swiss mice
Experimental: as §1, §2, §3, §4
The guillotine door was initially closed during the training session. Each mouse was placed into the white compartment. After 5 s, the door was raised. […] The retention test was carried out 24 h after training. Each mouse was placed again into the white compartment. After 5 s, the door was raised.
as §6

[4] = system: Aβ25-35-induced spontaneous alternation deficits in mice; assay: Spontaneous alternation performance (Y-maze) in Aβ25-35 ICV-injected mice; format: in vivo, Swiss mice; conditions: Example C

SMILES	Efficacy over time in Alzheimer's patients ([1]; compared with donepezil studies)	Effect on Aβ25-35-induced cognitive impairment, spontaneous alternation (Y-maze), after longer treatment [2]	Effect on Aβ25-35-induced cognitive impairment, spontaneous alternation (Y-maze), after longer treatment ([2]; listed as DNPz)	Effect on Aβ25-35-induced cognitive impairment, spontaneous alternation (Y-maze) [2]	Effect on Aβ25-35-induced cognitive impairment, spontaneous alternation (Y-maze) ([2]; listed as DNPz)	Percentage drug effect in Y-maze at D30 ([2]; Example B, 1 mg/Kg D20 until D40, tested at D30)	Percentage drug effect in Y-maze at D38 ([2]; Example B, 1 mg/Kg D20 until D40, tested at D38, not statistically significant)	Recovery of Aβ25-35-induced cognitive impairment assessed by Y-maze ([2]; Example B, 1 mg/Kg per os once a day started at D08 (to D17), tested D15)	Activity in Y-maze, % of optimal activity ([2]; Example B, 1 mg/kg administered D20 to D30, tested D28)	Effect on long-term memory, passive avoidance (step-through latency and escape latency) ([3]; Example A, treatment alone D20 to D40 or D42, tested D39-40 or D41-42)	Recovery of Aβ25-35-induced cognitive impairment assessed by passive avoidance test ([3]; Example B, 1 mg/Kg started at D08 (to D17), tested D16-17)	Activity in passive avoidance test ([3]; Example B, 1 mg/kg administered D20 to D30, tested D29-30)	Fear conditioning memory assessed by STPA at D99/D100 ([3]; Example C, end of experiment, treatment until D100)	% of alternation in Y-maze at D42 ([4]; 1 mg/Kg from D7, at D42)	Difference of Y-maze effect from Sc.Aβ-vehicle animals ([4]; 1 mg/Kg from D7, between D21 and D28)	Y-maze activity after D48 until D100 ([4]; donepezil 1 mg/Kg only, D7 to D100)	Time after initiation of treatment at which cognitive function reaches its baseline level ([1]; Alzheimer's patients)	Period during which treatment improved the patient's cognitive function ([1]; Alzheimer's patients, from initiation of treatment)
CCN(C)C(=O)Oc1cccc([C@H](C)N(C)C)c1 [rivastigmine]	limited efficacy																	
COc1cc2c(cc1OC)C(=O)C(CC1CCN(Cc3ccccc3)CC1)C2 (stereo not drawn) [donepezil]		totally lost	not sustained	partially alleviated	partial activity	43%	25%	fully recover	44%	partially restored long-term memory	fully recover	partially active	altered	47%	not significantly different	inactivity was sustained	30 weeks	12 weeks
